Columns and labels:
[1] = patients, by body surface area; cited from earlier work
[2] = system: microvascular endothelium (skin, right anterior thigh) of a peripheral artery disease patient; test: Skin colorimetry (a, b, L) before and after application of “μ” in a peripheral artery disease patient on cilostazol; format: in vivo, human; settings: 50 mg twice a day; for a dry: baseline (dry)
Text: As stated above, one available quantitative color system is the L*a*b* color space or Hunter L/a/b color space, which can be visualized as a rectangular 3D coordinate system. L indicates lightness, a is the red/green coordinate, and b is the yellow/blue coordinate. L can have a value from 0 (black) to 100 (perfect reflection). The a and b axes have no numerical limits. Coordinate a is positive when red, and negative when green. Positive b is yellow, and negative b is blue. Colors can be described numerically using numerical values for L, a, and b. Differences between two colors can be quantified for each of the individual L/a/b values (ΔL, Δa, Δb). Overall differences between two colors can be derived numerically based on the three Δ values.
μ=drug applied before colorimeter and/or spectrophotometer measurements.
L1, a1, b1=Initial measurement.
L2, a2, b2=Measurement with μ applied. L2−L1=ΔLμ(L2 minus L1)=change in lightness and darkness(+=lighter,−=darker) a2−a1=Δaμ(a2 minus a1)=change in red and green(+=redder,−=greener) b2−b1=Δbμ(b2 minus b1)=change in yellow and blue(+=yellower,−=bluer)
When the arteries in the lower extremities become blocked and stenosed with various disease manifestations such as diabetes, hypercholesterolemia there is an increased amount of claudication that occurs with the lower extremities with minimal exertion. Using the current methodology described herein the patient can ascertain if the effects of the various antiplatelet and statin medication's i.e. Lipitor, Crestor are affective in improving the blood flow to the lower extremities. By taking baseline measurements in the lower extremities in particular locations in the legs such as the anterior tibial surface of a right or left leg, medication can be then administered to the patient. After the corresponding 5 half-lives or more have past of drug “δ” the procedure above can be implemented and test run to determine the a, b, L after drug “μ” has been applied. This information can then be used by calculating the measurements with the equation as described above the change in the colorimetric and spectrophotometric variables that can be derived. This will then allow for the ability of the patient in the healthcare provider to know which drug provides the maximum increase in cardio vascular flow to the area based on the information of the homeostasis of the microvascular endothelial system. The more a percentage change of equal to or greater than 10%, the better the flow that would be understood to be an improvement of the peripheral circulation of that area. It will also allow for the proper titration of medication of that particular area. If it seems to improve the flow then, the patient and the healthcare provider may decide to increase the dosage of the medication to have a better benefit. This will allow for an objective determination of how well the patient is responding to the medication while minimizing the side effects of the drugs.
With reference to the table below and to FIG. 19, the table and the graph show a patient with known peripheral artery disease diagnosed by angiogram in the right distal common femoral artery who is having their right anterior thigh continuously evaluated at the same location for the a, b, L calculations after they were initially started on 50 mg of cilostazol twice a day from December 2016 until August 2017. The values of the of a, b, L, are calculated after “μ” was applied which is shown in color red.

coronary arteries = settings: cited from earlier work
skin capillaries = test: Topical wet run solution on skin: capillary dilation / red shift; format: in vivo, human; settings: applied to skin surface
Text: The inventor's work has identified previously unknown differences in the reactions of healthy and unhealthy individuals to acetylcholine and other vasodilative substances when applied to the skin. […] Additional efficacious wet run solutions include bradykinin, adenosine, vasopressin, nitroglycerin, sildenafil, serotonin, and thrombin.
“Wet runs” can be performed according to the same general protocol described above for dry runs, which are incorporated herein but will not be fully repeated for brevity. The difference is that for wet runs the skin area being measured with the color detector is wetted with a chemical solution (a.k.a. “Wet run solution”). For example, a solution of one or more chemicals (e.g. acetylcholine and/or thrombin) in water, alcohol, petroleum jelly, or saline. The solution can be applied by wiping or covering the area with a wet gauze pad. The solution may be applied once at the beginning of the procedure before the color detector is positioned on the skin, or applied more than once throughout the procedure. Suspensions of effective chemicals (as opposed to solutions), viscous spreadable chemical applications, lipid-carrier compounds, and potentially non-wet applications of effective chemicals are also contemplated.
Wet runs can also be used as a partial substitute for exercise in a clinical setting, such as for patients who are not physically able to perform stress test exercises. The chemical alone provokes the same general types of differential responses as stress test exercise. For example, in a healthy at-rest individual, acetylcholine alone causes skin capillary dilation, which increases blood perfusion and (because blood is red) causes the skin to become more red. In an unhealthy individual, the acetylcholine alone will cause only low, negligible, or even negative red shift. Thus, the differential reactions to application of acetylcholine (for example) can be used to assess vascular health or the effectiveness of medication even without a stress test.

For COc1cccc2c1C(=O)c1c(O)c3c(c(O)c1C2=O)C[C@@](O)(C(=O)CO)C[C@@H]3O[C@H]1C[C@H](N)[C@H](O)[C@H](C)O1 [Adriamycin], the “cumulative dose associated with an increased risk of cardiomyopathy” value [1] is given as “above 550 mg/m2”.

For O=C1CCc2cc(OCCCCc3nnnn3C3CCCCC3)ccc2N1 [Cilostazol, cilostazol], the “effect on blood flow to the microvascular endothelium (a shift after μ)” value ([2]; 9 months monitoring) was “improved blood flow”, the L ([2]; April 2017) was 70.42 and the b ([2]; April 2017) was 16.14. It also gave an L ([2]; August 2017) of 65.59, a b ([2]; August 2017) of 16.8 and an L ([2]; December 2016) of 65.09. It also gave a b ([2]; December 2016) of 15.65, an L ([2]; February 2017) of 71.68 and a b ([2]; February 2017) of 14.67. It also gave an L ([2]; January 2017) of 58.14, a b ([2]; January 2017) of 10.51 and an L ([2]; July 2017) of 71.63. It also gave a b ([2]; July 2017) of 14.62, an L ([2]; June 2017) of 66.06 and a b ([2]; June 2017) of 17.75. The L ([2]; March 2017) was 70.24, the b ([2]; March 2017) was 15.42 and the L ([2]; May 2017) was 69.91. For the same compound, the b ([2]; May 2017) was 15.64, the a dry ([2]; April 2017) was 5.14 and the a dry ([2]; August 2017) was 5.31. The a dry ([2]; December 2016) was 4.58, the a dry ([2]; February 2017) was 4.70 and the a dry ([2]; January 2017) was 4.62. For the same compound, the a dry ([2]; July 2017) was 5.15, the a dry ([2]; June 2017) was 5.35 and the a dry ([2]; March 2017) was 5.12. The a dry ([2]; May 2017) was 5.02, the “a wet after “μ”” value ([2]; April 2017) was 7.33 and the “a wet after “μ”” value ([2]; August 2017) was 10.32. The “a wet after “μ”” value ([2]; December 2016) was 5.35, the “a wet after “μ”” value ([2]; February 2017) was 7.33 and the “a wet after “μ”” value ([2]; January 2017) was 6.33. For the same compound, the “a wet after “μ”” value ([2]; July 2017) was 8.95, the “a wet after “μ”” value ([2]; June 2017) was 9.40 and the “a wet after “μ”” value ([2]; March 2017) was 7.62. The “a wet after “μ”” value ([2]; May 2017) was 8.06.

In the case of CC(=O)OCC[N+](C)(C)C [acetylcholine], the temporary occlusion (coronary arteries; eight arteries with advanced stenosis) is given as “temporary occlusion in five”.

For Nc1ncnc2c1ncn2[C@@H]1O[C@H](CO)[C@@H](O)[C@H]1O [adenosine], the “efficacy as wet run solution” value (skin capillaries) was “efficacious”.

For O=[N+]([O-])OCC(CO[N+](=O)[O-])O[N+](=O)[O-] [nitroglycerin], the vessel response (coronary arteries; all vessels (normal and diseased)) is given as “All vessels dilated” and the “efficacy as wet run solution” value (skin capillaries) is given as “efficacious”.

With NCCc1c[nH]c2ccc(O)cc12 [serotonin] the “efficacy as wet run solution” value (skin capillaries) was “efficacious”.

For CCCc1nn(C)c2c(=O)[nH]c(-c3cc(S(=O)(=O)N4CCN(C)CC4)ccc3OCC)nc12 [sildenafil], the “efficacy as wet run solution” value (skin capillaries) was “efficacious”.

In the case of NC(=O)CC[C@@H]1NC(=O)[C@H](Cc2ccccc2)NC(=O)[C@H](Cc2ccc(O)cc2)NC(=O)[C@@H](N)CSSC[C@@H](C(=O)N2CCC[C@H]2C(=O)N[C@@H](CCCN=C(N)N)C(=O)NCC(N)=O)NC(=O)[C@H](CC(N)=O)NC1=O [vasopressin], the “efficacy as wet run solution” value (skin capillaries) was “efficacious”.

In the case of thrombin, the “efficacy as wet run solution” value (skin capillaries) was “efficacious”.

Reference: patent US10154813B1, “Method and apparatus for patient skin color monitoring and drug efficacy measurement” (priority 2017, dated 2018)
